Tests used:
Format in all cases: cell-based, human
[1] = system: p21 minimal promoter; assay: Transient transfection of HeLa cells with p21m-BLA reporter plasmid, Bla staining (blue cells); conditions: Apicidin 1 μM; for % Blue cells: Table 3, 2 μg p21m-BLA + 0.1 μg pCMV-Luc, TSA 300 nM; for Bla staining at 60 min. / fold-ind. at 60 min. (Bla): Table 6; for fold-ind. at 60 min. (Bla) / fold-ind. at 15 min. (Bla): vs DMSO; for Bla staining at 15 min / fold-ind. at 15 min. (Bla): Table 7 (repeat)
Experimental: (§1) The p21m-BLA reporter plasmid was tested in transient transfection experiments of HeLa cells to evaluate the responsiveness of the minimal p21 promoter and the Bla reporter system to known HDAC inhibitors. In the first two transfection experiments, HeLa cells were transfected with 1 or 2 μg of Bla reporter plasmid containing either p21 minimal promoter (p21m-BLA) or CMV promoter (CMV-BLA) and 0.1 μg of pCMV-Luc or pRSV-Luc control plasmids. Different DNA-FUGENE transfection reagent ratios were tested (FUGENE is available from Roche Applied Science, Indianapolis, Ind.). […] Data are summarized below in Tables 1 and 2.
(§2) The percentage of β-lactamase-positive cells increased with time independent of the presence of HDAC inhibitors and was constantly higher with p21m-BLA than with pCMV-BLA.
(§3) In light of the above, the lack of apparent Bla activation in the above transfection experiments might have been due to the high sensitivity of the method. Therefore, transient transfections in which an accurate titration of the reporter plasmid DNA were performed. The titration of the reporter plasmid included using amounts lower than was used above. […] The transient transfections were repeated and the result confirmed (Table 7).

[2] = system: p21 minimal promoter; assay: Transient transfection of HeLa cells with p21m-SEAP reporter plasmid, SEAP activity; conditions: Apicidin 1 μM; for Fold Induct. (SEAP norm) / Fold induct. (SEAP) / SEAP (fold ind) / SEAP norm.-bckg/RLU norm (fold ind): vs DMSO
Experimental: To determine whether the p21 minimal promoter was responsive to HDAC inhibitors, a reporter plasmid containing the secreted alkaline phosphatase gene (SEAP) operably linked to the p21 minimal promoter (−182 through +25), pcDNA3-21m-SEAP, was tested in transient transfection experiments of HeLa cells. […] All data summarized in Tables 4 through 7 were obtained by normalizing the total amount of transfected DNA to 2.1 μg using a promoterless plasmid.

[3] = system: HDAC activity (acetylated histone H3); assay: Acetylation of core histones (inhibition of HDAC activity) in HeLa cells, acetylated histone H3 immunoblot; conditions: Homo sapiens, HeLa, 13 h, read-out: AcH3 EC50
Experimental: Induction of endogenous p21 and acetylation of core histones (inhibition of HDAC activity) was as follows. Dose-response experiments were performed in HeLa cells with different classes of known HDAC inhibitors. […] An α-tubulin-specific antibody (Sigma, St. Louis, Mo.; catalog number: T9026) was used as an internal standard. Quantitative data were obtained by densitometric analysis of X-ray films and were normalized for the internal standard values.

[4] = system: HeLa cells; assay: Cell death in transiently transfected HeLa cells; conditions: after 6 hours; TSA 300 nM, Apicidin 1 μM; transfected HeLa cells
Experimental: as §1, §2

[5] = system: CMV promoter; assay: Transient transfection of HeLa cells with CMV-BLA (pCMV-BLA) reporter plasmid, Bla staining (blue cells); conditions: Apicidin 1 μM; for % Blue cells: Table 3, 2 μg pCMV-BLA + 0.1 μg pCMV-Luc, TSA 300 nM; for Bla staining at 60 min. / fold-ind. at 60 min. (Bla): Table 6; for fold-ind. at 60 min. (Bla): vs DMSO
Experimental: as §1, §2, §3

[6] = system: p21 minimal promoter; assay: Fluorometric β-lactamase activity assay in stable HeLa clone 1.17 (p21m-BLA)
Experimental: All clones were screened for the presence of stably and functional integrated copies of the p21m-BLA reporter gene transcription cassette by performing a fluorometric β-lactamase activity assay after treatment with the HDAC inhibitor Apicidin at a concentration of 1 μM (saturating dose representing 100% of Bla gene activation, i.e., 100% of HDAC inhibition). A 100 μL aliquot of cells for each stable transformant in complete DMEM was plated into a well of a 96 well plate at about 36,000 cells per well for treatment with 1 μM Apicidin (saturating dose) and a 100 μL aliquot of cells was plated into a well of a 96 well plate at 24,000 cells per well for treatment with DMSO (vehicle control). […] After 4 hours, 25 μL of complete DMEM containing Apicidin at 5× final concentration or DMSO (5%) was added to each of the wells. The cells were then grown at 37° C., 5% CO2 for about 12 to 16 hours. Afterwards, the medium was removed and 100 μL of DMEM without serum and 25 μL of FRET labeled CCF2-AM Bla substrate diluted in the appropriate buffer according to the manufacturer recommendations were each added to the cells to give a final concentration of 1 μM CCF2-AM.

[7] = Table 5, TSA 300 nM, P21m-SEAP 0.1 μg DNA
[8] = Table 5, TSA 300 nM, P21m-SEAP 0.2 μg DNA
[9] = Table 5, TSA 300 nM, P21m-SEAP 0.5 μg DNA
[10] = Table 5, TSA 300 nM, P21m-SEAP 1 μg DNA
[11] = Table 5, TSA 300 nM, P21m-SEAP 2 μg DNA

## CCC(=O)CCCCC[C@@H]1NC(=O)[C@H]2CCCCN2C(=O)[C@H]([C@@H](C)CC)NC(=O)[C@H](Cc2cn(OC)c3ccccc23)NC1=O [Apicidin]
[1]; only with the lowest DNA amounts
  induction of β-lactamase activity: 3- to 5 fold
[1]; 6 hr treatment
  % Blue cells: 6%
[1]; 12 hr treatment
  % Blue cells: 10%
[1]; 24 hr treatment
  % Blue cells: 25%
[1]; p21m-BLA 0 μg DNA
  Bla staining at 60 min.: 0%
  Bla staining at 15 min: 0%
[1]; p21m-BLA 0.02 μg DNA
  Bla staining at 60 min.: 2-3%
  fold-ind. at 60 min. (Bla): 3-4 fold
  Bla staining at 15 min: 6-10%
  fold-ind. at 15 min. (Bla): 2-3 fold
[1]; p21m-BLA 0.05 μg DNA
  Bla staining at 60 min.: 10-15%
  fold-ind. at 60 min. (Bla): 5 fold
  Bla staining at 15 min: 20-25%
  fold-ind. at 15 min. (Bla): 4-5 fold
[1]; p21m-BLA 0.1 μg DNA
  Bla staining at 60 min.: 25-30%
  fold-ind. at 60 min. (Bla): 2 fold
  Bla staining at 15 min: 25-30%
  fold-ind. at 15 min. (Bla): 2 fold
[1]; p21m-BLA 0.2 μg DNA
  Bla staining at 60 min.: 35-40%
  fold-ind. at 60 min. (Bla): 2 fold
  Bla staining at 15 min: 40%
  fold-ind. at 15 min. (Bla): 1.3 fold
[1]; p21m-BLA 0.5 μg DNA
  Bla staining at 60 min.: 50%
  fold-ind. at 60 min. (Bla): 1.25 fold
  Bla staining at 15 min: 40%
  fold-ind. at 15 min. (Bla): 1 fold
[2]; TSA 300 nM, p21m-SEAP promoter titration in HeLa
  induction of SEAP (maximum): up to 20 fold
[2]; Table 4, P21m-SEAP 0 μg DNA (total DNA 2.1 μg)
  SEAP (10 min): 11366
[2]; Table 4, P21m-SEAP 0 μg DNA
  SEAP activity normalised to total protein: 5683
  Fold Induct. (SEAP norm): 4.901 fold
  Fold induct. (SEAP): 3.5 fold
[2]; Table 4, P21m-SEAP 0.1 μg DNA (total DNA 2.1 μg)
  SEAP (10 min): 41278
[2]; Table 4, P21m-SEAP 0.1 μg DNA
  SEAP activity normalised to total protein: 27518.67
  Fold Induct. (SEAP norm): 7.691 fold
  Fold induct. (SEAP): 4.8 fold
[2]; Table 4, P21m-SEAP 0.2 μg DNA (total DNA 2.1 μg)
  SEAP (10 min): 33449
[2]; Table 4, P21m-SEAP 0.2 μg DNA
  SEAP activity normalised to total protein: 16724.5
  Fold Induct. (SEAP norm): 14.9372 fold
  Fold induct. (SEAP): 10.3 fold
[2]; Table 4, P21m-SEAP 0.5 μg DNA (total DNA 2.1 μg)
  SEAP (10 min): 81729
[2]; Table 4, P21m-SEAP 0.5 μg DNA
  SEAP activity normalised to total protein: 54486
  Fold Induct. (SEAP norm): 19.2643 fold
  Fold induct. (SEAP): 9.6 fold
[2]; Table 4, P21m-SEAP 1 μg DNA (total DNA 2.1 μg)
  SEAP (10 min): 85405
[2]; Table 4, P21m-SEAP 1 μg DNA
  SEAP activity normalised to total protein: 61003.57
  Fold Induct. (SEAP norm): 17.5478 fold
  Fold induct. (SEAP): 8.8 fold
[2]; Table 4, P21m-SEAP 2 μg DNA (total DNA 2.1 μg)
  SEAP (10 min): 795345
[2]; Table 4, P21m-SEAP 2 μg DNA
  SEAP activity normalised to total protein: 441858.3
  Fold Induct. (SEAP norm): 15.3076 fold
  Fold induct. (SEAP): 9.8 fold
[2]; Table 5, TSA 300 nM, P21m-SEAP 0 μg DNA (total DNA 2.1 μg)
  SEAP (10 min): 2133
[2]; Table 5, TSA 300 nM, P21m-SEAP 0 μg DNA
  SEAP (fold ind): 1.8 fold
[2]; [7]
  SEAP norm-bckg/RLU norm: 4,740.65
  SEAP (fold ind): 3.3 fold
  SEAP norm.-bckg/RLU norm (fold ind): 10.7 fold
[2]; Table 5, TSA 300 nM, P21m-SEAP 0.1 μg DNA (total DNA 2.1 μg)
  SEAP (10 min): 5661
[2]; [8]
  SEAP norm-bckg/RLU norm: 10,064.04
  SEAP (fold ind): 3.75 fold
  SEAP norm.-bckg/RLU norm (fold ind): 16.4 fold
[2]; Table 5, TSA 300 nM, P21m-SEAP 0.2 μg DNA (total DNA 2.1 μg)
  SEAP (10 min): 10279
[2]; [9]
  SEAP norm-bckg/RLU norm: 24,280.99
  SEAP (fold ind): 6.25 fold
  SEAP norm.-bckg/RLU norm (fold ind): 17.9 fold
[2]; Table 5, TSA 300 nM, P21m-SEAP 0.5 μg DNA (total DNA 2.1 μg)
  SEAP (10 min): 16014
[2]; [10]
  SEAP norm-bckg/RLU norm: 68,122.56
  SEAP (fold ind): 6.8 fold
  SEAP norm.-bckg/RLU norm (fold ind): 16.9 fold
[2]; Table 5, TSA 300 nM, P21m-SEAP 1 μg DNA (total DNA 2.1 μg)
  SEAP (10 min): 48928
[2]; [11]
  SEAP norm-bckg/RLU norm: 219,589.86
  SEAP (fold ind): 4.5 fold
  SEAP norm.-bckg/RLU norm (fold ind): 17.3 fold
[2]; Table 5, TSA 300 nM, P21m-SEAP 2 μg DNA (total DNA 2.1 μg)
  SEAP (10 min): 108562
[3]
  EC50: 110 nM
[4]
  Cell-death: not visible
[5]; 6 hr treatment
  % Blue cells: 4%
[5]; 12 hr treatment
  % Blue cells: 3%
[5]; 24 hr treatment
  % Blue cells: 10%
[5]; pCMV-BLA 0 μg DNA
  Bla staining at 60 min.: 0%
[5]; pCMV-BLA 0.02 μg DNA
  Bla staining at 60 min.: 5%
  fold-ind. at 60 min. (Bla): 1 fold
[5]; pCMV-BLA 0.05 μg DNA
  Bla staining at 60 min.: 5-10%
  fold-ind. at 60 min. (Bla): 1 fold
[5]; pCMV-BLA 0.1 μg DNA
  Bla staining at 60 min.: 10-15%
  fold-ind. at 60 min. (Bla): 1 fold
[5]; pCMV-BLA 0.2 μg DNA
  Bla staining at 60 min.: 20%
  fold-ind. at 60 min. (Bla): 1 fold
[5]; pCMV-BLA 0.5 μg DNA
  Bla staining at 60 min.: 40%
  fold-ind. at 60 min. (Bla): 1 fold
[6]; Homo sapiens, HeLa, 13 h, read-out: p21m-Bla EC50
  EC50: 170 nM
[6]; clone 1.17, saturating amounts of Apicidin (1 μM)
  induction over DMSO (slope analysis of β-lactamase activity): ~200 fold
